Source: patent publication US20220184164A1, “PREPARATIONS CONTAINING BERRY EXTRACTS FOR USE IN THE PROPHYLAXIS AND/OR TREATMENT OF VIRAL INFECTIONS CAUSED BY HERPESVIRIDAE” (Evonik Operations GmbH, priority 2019, published 2022)

Columns and labels:
[1] = test system: HSV-1; experiment: Anti-viral assay: GFP-encoding HSV-1 infection of pre-treated BHK cells, infected cells counted; assay type: cell-based, herpes simplex virus 1
Protocol: (§1) BHK cells were incubated with decreasing concentration of the solubilized test compounds for approx. 1 h. All concentrations were analyzed by six independent replicates on a black 96-well plate (PerkinElmer). Cells were infected with GFP-encoding wildtype HSV-1 virus and incubated for two days. Two days after infection, HSV-1-infected cells and GFP expressing cells were directly counted using the PerkinElmer Ensight system with optical cell culture plates. The instrument was controlled by […]. Anti-viral assays for HHV8 and mCMV were performed accordingly.
The cells were subsequently infected with GFP-encoding HSV at a multiplicity of infection of 2.5, and infected GFP-expressing cells were counted one day after infection using the PerkinElmer Ensight system. […] Thus, the sugar is not required as potential co-factor for drug uptake.

[2] = test system: HSV-1 related intracellular β-Amyloid deposition in SH-SY5Y (neuroblastoma) cells; experiment: β-Amyloid assay: intracellular deposition of β-Amyloid in HHV-1-infected SH-SY5Y cells (immunofluorescence, qualitative); assay type: cell-based; conditions: 500, 250 and 125 μg/ml
Protocol: Samples were fixed using Histofix and permeabilized with 0.05% Triton X-100 in phosphate-buffered saline for 5 min. Blocking steps were performed with 3% bovine serum albumin for 1 h followed by primary antibody incubation with rabbit polyclonal anti-beta amyloid 1-42 and polyclonal goat anti-green fluorescent protein. Antibodies were diluted 1:100 and 1:1000, respectively, and were incubated overnight. To visualize β-Amyloid antibodies, donkey anti-rabbit AlexaFluor® 555 secondary antibodies were used (diluted 1:400); to detect the GFP antibodies donkey anti-goat AlexaFluor® 647 secondary antibodies (diluted 1:400) were used. The samples were then mounted in Fluoromount-G™ with DAPI and analyzed with the BZ-9000 BIOREVO System (Keyence).
Herpes virus infections and specifically HSV-1 infections are correlated to intracellular R-Amyloid and tau-protein deposition in cells of the CNS in progression of Alzheimer's disease. […] Therefore, in a first step the infectability of SH-SYSY neuroblastoma cells with HHV-1 was tested. After incubation of SH-SYSY cultures with HHV-1 (MOI=8), an infection rate of >90% (qualitatively) was detected that came along with high intracellular β-Amyloid deposition.

[3] = test system: HHV-8; experiment: Anti-viral assay: GFP-encoding HHV-8 infection, infected cells counted; assay type: cell-based, Herpes virus 8
Protocol: as §1
The concentrations of materials were again adjusted to the same levels of anthocyanins (except the single berry extracts). No treatment or only maltodextrin served as controls. The cells were subsequently infected with GFP-encoding HHV-8, and infected GFP-expressing cells were counted two days after infection using the PerkinElmer Ensight system.

| Molecule | inhibition of HSV-1 by single anthocyanins [1] | infected and β-Amyloid-positive cells [2] | viral inhibition of HHV-8 (in words) [3] |
| --- | --- | --- | --- |
| OC[C@H]1O[C@@H](Oc2cc3c(O)cc(O)cc3[o+]c2-c2cc(O)c(O)c(O)c2)[C@H](O)[C@@H](O)[C@H]1O [D3Gal, Delphinidin 3-galactoside] | Neither C3G nor D3Gal or Pet3G inhibited HSV-1 |  |  |
| maltodextrin |  | HHV-1-infected cells were mostly β-Amyloid-positive |  |
| OC[C@H]1OC(Oc2cc3c(O)cc(O)cc3[o+]c2-c2cc(O)c(O)c(O)c2)[C@H](O)C(O)C1O (stereo partly drawn) [D3G, Delphinidin 3-glucoside] | decreased viral infectivity like Healthberry® 865 |  | identified as an active ingredient in Healthberry® 865 |
| COc1cc(-c2[o+]c3cc(O)cc(O)c3cc2O[C@@H]2O[C@H](CO)[C@@H](O)[C@H](O)[C@H]2O)cc(O)c1O [Pet3G, Petunidin 3-glucoside] | Neither C3G nor D3Gal or Pet3G inhibited HSV-1 |  |  |
| OC[C@H]1O[C@@H](Oc2cc3c(O)cc(O)cc3[o+]c2-c2ccc(O)c(O)c2)[C@H](O)[C@@H](O)[C@@H]1O [C3G, Cyanidin 3-glucoside] | Neither C3G nor D3Gal or Pet3G inhibited HSV-1 |  |  |
